Reference: patent publication US20250213555A1, “SUBSTITUTED TETRAHYDROFURAN ANALOGS AS MODULATORS OF SODIUM CHANNELS” (VERTEX PHARMACEUTICALS INCORPORATED, priority 2021, published 2025)

These compounds were tested against human Nav 1.8 (Homo sapiens, UniProt Q9Y5Y9) (assay: E-VIPR assay detecting and measuring Nav inhibition properties). Details: HEK cells expressing a truncated form of human Nav 1.8; assay performed in the presence of human serum (compound numbers followed by "*"); read-out: measured IC50 value in the E-VIPR Assay.
human Nav 1.8, sequence (Q9Y5Y9 126-399 limits assumed): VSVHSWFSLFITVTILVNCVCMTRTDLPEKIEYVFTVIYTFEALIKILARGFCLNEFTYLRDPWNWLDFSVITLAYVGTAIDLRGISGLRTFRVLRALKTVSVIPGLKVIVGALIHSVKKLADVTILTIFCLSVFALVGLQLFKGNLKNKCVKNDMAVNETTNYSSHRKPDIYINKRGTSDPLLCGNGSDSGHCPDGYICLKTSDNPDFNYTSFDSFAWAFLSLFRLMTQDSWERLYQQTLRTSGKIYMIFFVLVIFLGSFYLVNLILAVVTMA
human Nav 1.8, sequence (Q9Y5Y9 660-890 limits assumed): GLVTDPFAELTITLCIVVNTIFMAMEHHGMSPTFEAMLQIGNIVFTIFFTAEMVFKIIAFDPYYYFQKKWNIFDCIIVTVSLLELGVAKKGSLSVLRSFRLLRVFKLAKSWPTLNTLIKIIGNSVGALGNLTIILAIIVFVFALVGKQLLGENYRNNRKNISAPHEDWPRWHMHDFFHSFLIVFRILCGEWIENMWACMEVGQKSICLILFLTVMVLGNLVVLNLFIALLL
human Nav 1.8, sequence (Q9Y5Y9 1148-1722 limits assumed): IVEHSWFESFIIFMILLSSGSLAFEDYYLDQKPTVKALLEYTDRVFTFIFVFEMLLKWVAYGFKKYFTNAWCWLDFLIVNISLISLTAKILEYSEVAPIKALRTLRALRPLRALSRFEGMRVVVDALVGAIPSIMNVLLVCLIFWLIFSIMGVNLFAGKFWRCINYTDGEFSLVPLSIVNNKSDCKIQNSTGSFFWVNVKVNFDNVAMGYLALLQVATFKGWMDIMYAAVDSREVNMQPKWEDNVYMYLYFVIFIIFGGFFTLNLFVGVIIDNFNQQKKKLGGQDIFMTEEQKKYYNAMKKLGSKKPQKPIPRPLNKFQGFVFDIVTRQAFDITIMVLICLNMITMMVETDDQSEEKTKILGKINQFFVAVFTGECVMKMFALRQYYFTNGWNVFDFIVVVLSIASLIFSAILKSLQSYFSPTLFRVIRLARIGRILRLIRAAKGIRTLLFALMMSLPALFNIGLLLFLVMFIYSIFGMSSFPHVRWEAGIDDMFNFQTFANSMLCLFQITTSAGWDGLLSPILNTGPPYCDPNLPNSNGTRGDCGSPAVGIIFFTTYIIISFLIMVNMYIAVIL
Assay type: cell-based
Procedure, shortened: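 Nav inhibition was read by E-VIPR: cells were electrically stimulated while coumarin/oxonol FRET emissions were recorded. Cells were HEK expressing a truncated human Nav 1.8 and co-transduced with KIR2.1, and were assayed in 25% final human serum.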

Row | Structure (SMILES) | IC50
1 | Cc1c(F)ccc([C@H]2C[C@@](C)(C(F)(F)F)O[C@@H]2C(=O)Nc2ccnc(C(N)=O)c2)c1OCCO (single isomer, unassigned) [Compound 36] | ≥ 1 µM

Same assay, conditions: HEK cells expressing a truncated form of human Nav 1.8; compound numbers without "*" (not marked as run in the presence of human serum); read-out: measured IC50 value in the E-VIPR Assay

Row | Structure (SMILES) | IC50
2 | CNC(=O)c1cc(NC(=O)[C@@H]2O[C@@](C)(C(F)(F)F)[C@@H](C)[C@H]2c2ccc(F)c(F)c2OC[C@@H](C)N2CC3(COC3)C2)ccn1 [Compound 41, 4-((2R,3S,4S,5R)-3-(2-((R)-2-(2-oxa-6-azaspiro[3.3]heptan-6-yl)propoxy)-3,4-difluorophenyl)-4,5-dimethyl-5-(trifluoromethyl)tetrahydrofuran-2-carboxamido)-N-methylpicolinamide] | 0.1 to 1 µM
3 | C[C@H]1[C@@H](c2cccc(Cl)c2O[C@H]2C[C@@H](O)C2)[C@H](C(=O)Nc2ccnc(C(N)=O)c2)O[C@@]1(C)C(F)(F)F [Compound 213, 4-((2R,3S,4S,5R)-3-(3-chloro-2-((1s,3R)-3-hydroxycyclobutoxy)phenyl)-4,5-dimethyl-5-(trifluoromethyl)tetrahydrofuran-2-carboxamido) picolinamide] | < 0.01 µM
4 | COc1c([C@H]2[C@H](C(=O)Nc3ccnc(C(=O)N4C[C@H]5CC[C@@H](C4)NC5)c3)O[C@@](C)(C(F)(F)F)[C@H]2C)ccc(F)c1F [Compound 244, (2R,3S,4S,5R)-N-(2-((1S,5S)-3,6-diazabicyclo[3.2.2]nonane-3-carbonyl)pyridin-4-yl)-3-(3,4-difluoro-2-methoxyphenyl)-4,5-dimethyl-5-(trifluoromethyl)tetrahydrofuran-2-carboxamide] | < 0.01 µM
5 | COc1c([C@H]2[C@H](C(=O)Nc3ccnc(C(=O)N4CC5COCC(C4)N5C)c3)O[C@@](C)(C(F)(F)F)[C@H]2C)ccc(F)c1F [Compound 284, (2R,3S,4S,5R)-3-(3,4-difluoro-2-methoxyphenyl)-4,5-dimethyl-N-(2-(9-methyl-3-oxa-7,9-diazabicyclo[3.3.1]nonane-7-carbonyl)pyridin-4-yl)-5-(trifluoromethyl)tetrahydrofuran-2-carboxamide] | < 0.01 µM
6 | COc1c([C@H]2[C@H](C(=O)Nc3ccnc(C(=O)N[C@H]4C[C@@H](C)CN(C)C4)c3)O[C@@](C)(C(F)(F)F)[C@H]2C)ccc(F)c1F [Compound 290, 4-((2R,3S,4S,5R)-3-(3,4-difluoro-2-methoxyphenyl)-4,5-dimethyl-5-(trifluoromethyl)tetrahydrofuran-2-carboxamido)-N-((3S,5R)-1,5-dimethylpiperidin-3-yl)picolinamide] | 0.1 to 1 µM
7 | COc1c([C@H]2[C@H](C(=O)Nc3ccnc(C(=O)N4CC5(CCN5C)C4)c3)O[C@@](C)(C(F)(F)F)[C@H]2C)ccc(F)c1F [Compound 216, (2R,3S,4S,5R)-3-(3,4-difluoro-2-methoxyphenyl)-4,5-dimethyl-N-(2-(1-methyl-1,6-diazaspiro[3.3]heptane-6-carbonyl)pyridin-4-yl)-5-(trifluoromethyl)tetrahydrofuran-2-carboxamide] | < 0.01 µM
8 | COc1c([C@H]2[C@H](C(=O)Nc3ccnc(C(=O)N(C)CCN(C)C)c3)O[C@@](C)(C(F)(F)F)[C@H]2C)ccc(F)c1F [Compound 273, 4-((2R,3S,4S,5R)-3-(3,4-difluoro-2-methoxyphenyl)-4,5-dimethyl-5-(trifluoromethyl)tetrahydrofuran-2-carboxamido)-N-(2-(dimethylamino)ethyl)-N-methylpicolinamide] | < 0.01 µM
9 | COc1c([C@H]2[C@H](C(=O)Nc3ccnc(C(=O)N4C[C@H]5CCNC[C@H]54)c3)O[C@@](C)(C(F)(F)F)[C@H]2C)ccc(F)c1F [Compound 227, (2R,3S,4S,5R)-N-(2-((1S,6R)-3,8-diazabicyclo[4.2.0]octane-8-carbonyl)pyridin-4-yl)-3-(3,4-difluoro-2-methoxyphenyl)-4,5-dimethyl-5-(trifluoromethyl)tetrahydrofuran-2-carboxamide] | < 0.01 µM
10 | C[C@@H](CO)COc1c([C@H]2[C@H](C(=O)Nc3ccnc(C(N)=O)c3)O[C@@](C)(C(F)(F)F)[C@H]2C)ccc(F)c1F [Compound 81, 4-((2R,3S,4S,5R)-3-(3,4-difluoro-2-((S)-3-hydroxy-2-methylpropoxy)phenyl)-4,5-dimethyl-5-(trifluoromethyl)tetrahydrofuran-2-carboxamido)picolinamide] | < 0.01 µM
11 | COc1c([C@H]2[C@H](C(=O)Nc3ccnc(C(=O)N4C[C@@H](N)[C@H](F)C4)c3)O[C@@](C)(C(F)(F)F)[C@H]2C)ccc(F)c1F [Compound 258, (2R,3S,4S,5R)-N-(2-((3R,4R)-3-amino-4-fluoropyrrolidine-1-carbonyl)pyridin-4-yl)-3-(3,4-difluoro-2-methoxyphenyl)-4,5-dimethyl-5-(trifluoromethyl)tetrahydrofuran-2-carboxamide] | < 0.01 µM
12 | C[C@H]1[C@@H](c2ccc(F)c(F)c2O[C@@H]2CCN(C)C2)[C@H](C(=O)Nc2ccnc(C(N)=O)c2)O[C@@]1(C)C(F)(F)F (single isomer, unassigned) [Compound 102, rel-4-((2R*,3S*,4S*,5R*)-3-(3,4-difluoro-2-((-1-methylpyrrolidin-3-yl)oxy)phenyl)-4,5-dimethyl-5-(trifluoromethyl)tetrahydrofuran-2-carboxamido)picolinamide] | 0.01 to 0.1 µM
13 | COc1c([C@H]2[C@H](C(=O)Nc3ccnc(C(=O)N4CC[C@H](O)C4)c3)O[C@@](C)(C(F)(F)F)[C@H]2C)ccc(F)c1F [Compound 219, (2R,3S,4S,5R)-3-(3,4-difluoro-2-methoxyphenyl)-N-(2-((S)-3-hydroxypyrrolidine-1-carbonyl)pyridin-4-yl)-4,5-dimethyl-5-(trifluoromethyl)tetrahydrofuran-2-carboxamide] | < 0.01 µM
14 | COc1c([C@H]2[C@H](C(=O)Nc3ccnc(C(=O)N[C@H]4CNC[C@@H]4OC)c3)O[C@@](C)(C(F)(F)F)[C@H]2C)ccc(F)c1F [Compound 242, 4-((2R,3S,4S,5R)-3-(3,4-difluoro-2-methoxyphenyl)-4,5-dimethyl-5-(trifluoromethyl)tetrahydrofuran-2-carboxamido)-N-((3S,4S)-4-methoxypyrrolidin-3-yl)picolinamide] | 0.01 to 0.1 µM
15 | C[C@H]1[C@@H](c2ccc(F)c(F)c2OCCN2CC3CCC2CO3)[C@H](C(=O)Nc2ccnc(C(N)=O)c2)O[C@@]1(C)C(F)(F)F (stereo partly drawn) [Compound 124, 4-((2R,3S,4S,5R)-3-(2-(2-(2-oxa-5-azabicyclo[2.2.2]octan-5-yl)ethoxy)-3,4-difluorophenyl)-4,5-dimethyl-5-(trifluoromethyl)tetrahydrofuran-2-carboxamido)picolinamide] | < 0.01 µM
16 | C[C@H](Oc1c([C@H]2[C@H](C(=O)Nc3ccnc(C(N)=O)c3)O[C@@](C)(C(F)(F)F)[C@H]2C)ccc(F)c1F)C1COC1 [Compound 158, 4-((2R,3S,4S,5R)-3-(3,4-difluoro-2-((S)-1-(oxetan-3-yl)ethoxy)phenyl)-4,5-dimethyl-5-(trifluoromethyl)tetrahydrofuran-2-carboxamido)picolinamide] | < 0.01 µM
17 | C[C@H]1[C@@H](c2ccc(F)c(F)c2OCC2CN(C)C2)[C@H](C(=O)Nc2ccnc(C(N)=O)c2)O[C@@]1(C)C(F)(F)F [Compound 104, 4-((2R,3S,4S,5R)-3-(3,4-difluoro-2-((1-methylazetidin-3-yl)methoxy)phenyl)-4,5-dimethyl-5-(trifluoromethyl)tetrahydrofuran-2-carboxamido)picolinamide] | 0.01 to 0.1 µM
18 | C/C(COc1c([C@H]2[C@H](C(=O)Nc3ccnc(C(N)=O)c3)O[C@@](C)(C(F)(F)F)[C@H]2C)ccc(F)c1F)=N\O [Compound 185, 4-((2R,3S,4S,5R)-3-(3,4-difluoro-2-((E)-2-(hydroxyimino)propoxy)phenyl)-4,5-dimethyl-5-(trifluoromethyl)tetrahydrofuran-2-carboxamido)picolinamide] | < 0.01 µM
19 | COc1c([C@H]2[C@H](C(=O)Nc3ccnc(C(=O)N4CC5(CCN5)C4)c3)O[C@@](C)(C(F)(F)F)[C@H]2C)ccc(F)c1F [Compound 215, (2R,3S,4S,5R)—N-(2-(1,6-diazaspiro[3.3]heptane-6-carbonyl)pyridin-4-yl)-3-(3,4-difluoro-2-methoxyphenyl)-4,5-dimethyl-5-(trifluoromethyl)tetrahydrofuran-2-carboxamide] | < 0.01 µM
20 | COc1c([C@H]2[C@H](C(=O)Nc3ccnc(C(=O)N4C[C@@H](N)[C@H](OC)C4)c3)O[C@@](C)(C(F)(F)F)[C@H]2C)ccc(F)c1F [Compound 263, (2R,3S,4S,5R)-N-(2-((3R,4R)-3-amino-4-methoxypyrrolidine-1-carbonyl)pyridin-4-yl)-3-(3,4-difluoro-2-methoxyphenyl)-4,5-dimethyl-5-(trifluoromethyl)tetrahydrofuran-2-carboxamide] | < 0.01 µM
21 | C[C@H]1[C@@H](c2ccc(F)c(F)c2OCCc2cn(C)cn2)[C@H](C(=O)Nc2ccnc(C(N)=O)c2)O[C@@]1(C)C(F)(F)F [Compound 85, 4-((2R,3S,4S,5R)-3-(3,4-difluoro-2-(2-(1-methyl-1H-imidazol-4-yl)ethoxy)phenyl)-4,5-dimethyl-5-(trifluoromethyl)tetrahydrofuran-2-carboxamido) picolinamide] | < 0.01 µM
22 | C[C@H]1[C@@H](c2ccc(F)c(F)c2OCC2COC2)[C@H](C(=O)Nc2ccnc(C(N)=O)c2)O[C@@]1(C)C(F)(F)F [Compound 70, 4-((2R,3S,4S,5R)-3-(3,4-difluoro-2-(oxetan-3-ylmethoxy)phenyl)-4,5-dimethyl-5-(trifluoromethyl)tetrahydrofuran-2-carboxamido)picolinamide] | < 0.01 µM
23 | COc1c(C2C(C(=O)Nc3ccnc(C(=O)N4CCC(N(C)C)C4)c3)OC(C)(C(F)(F)F)C2C)ccc(F)c1F (single isomer, unassigned) [Compound 265, rel-(2R*,3S,*4S*,5R*)-3-(3,4-difluoro-2-methoxyphenyl)-N-(2-(3-(dimethylamino)pyrrolidine-1-carbonyl)pyridin-4-yl)-4,5-dimethyl-5-(trifluoromethyl)tetrahydrofuran-2-carboxamide] | < 0.01 µM
